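Assay format: 96-well plates, 48-hour exposure. The concentration for 50% growth inhibition is given as GI50.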 Active and inactive are the calls of the source. No stated cut-off is given here; in the data, active = GI50 up to about 1.1 µM and inactive = higher.

Some test systems named below: 786-0; BT-549; CAKI-1; DU-145; HL-60; K562; MDA-MB-231; MDA-MB-435; MOLT-4; Malme-3M; NCI-H226; NCI-H23; NCI-H460; OVCAR-8; PC-3; SK-MEL-28; TK-10; UACC-62; UO-31; OVCAR-4.
Holding throughout (experiment): inhibition of tumour cell growth, NCI panel, 48 h

Regarding `CN1CC2=C(N=C(S)NC2c2ccc(Cl)cc2)/C(=C/c2ccc(Cl)cc2)C1` (centres undefined), the GI50 was 24.4 µM (inactive) in the assay on 786-0; 20.4 µM (inactive) with BT-549; 18.3 µM (inactive) with CAKI-1; 14.1 µM (inactive) in the assay with DU-145; 14.6 µM (inactive) with HL-60; 12.6 µM (inactive) with K562. The GI50 in the assay with MDA-MB-231 is 20.8 µM (inactive); in the assay with MDA-MB-435, 14.9 µM (inactive); in the assay with MOLT-4, 5.32 µM (inactive); in the assay on Malme-3M it was 14.5 µM (inactive); with NCI-H226, > 10 µM (inactive); in the assay with NCI-H23, 20 µM (inactive). Besides, the GI50 was 14.8 µM (inactive) with NCI-H460; 17.5 µM (inactive) in the assay on OVCAR-8; 9.4 µM (inactive) with PC-3; 18.5 µM (inactive) with SK-MEL-28; 22.6 µM (inactive) with TK-10; 18.2 µM (inactive) in the assay on UACC-62. Also, in the assay with UO-31, the GI50 was 25.8 µM (inactive).

As to `C/C(=N\NC(=S)NCCCNC(=S)N/N=C(\C)c1ccccn1)c1ccccn1`, the GI50 in the assay on 786-0 was 0.617 µM (active); with BT-549 it was 3.13 µM (inactive); with DU-145 it was 2.26 µM (inactive); in the assay with HL-60, 1.35 µM (inactive); with K562, 4.06 µM (inactive); with MDA-MB-231 it was 6.21 µM (inactive). The GI50 was 3.23 µM (inactive) with MDA-MB-435; 2.51 µM (inactive) with MOLT-4; 2.42 µM (inactive) in the assay on Malme-3M; 6.92 µM (inactive) with NCI-H226; 7.33 µM (inactive) with NCI-H23; 1.29 µM (inactive) with NCI-H460. The GI50 in the assay with OVCAR-4 was 5.28 µM (inactive); in the assay on OVCAR-8 it was 1.71 µM (inactive); with PC-3 it was 9.1 µM (inactive); in the assay on SK-MEL-28 it was 4.99 µM (inactive); in the assay on TK-10, 0.619 µM (active); in the assay with UACC-62 it was 2.66 µM (inactive). In addition, the GI50 in the assay with UO-31 was 1.83 µM (inactive).

As to `CN(Cc1cnc2nc(N)nc(N)c2n1)c1ccc(C(=O)NC23CC4CC(CC(C4)C2)C3)cc1`, the GI50 in the assay with 786-0 is 7.24 µM (inactive); with BT-549, 11.8 µM (inactive); in the assay on CAKI-1 it was 12 µM (inactive); in the assay with DU-145, 10.7 µM (inactive); in the assay with HL-60 it was 12.2 µM (inactive); in the assay with K562, 1.06 µM (active). In addition, the GI50 is 14.1 µM (inactive) with MDA-MB-231; 10.5 µM (inactive) with MDA-MB-435; 6.68 µM (inactive) in the assay with MOLT-4; 6.85 µM (inactive) with Malme-3M; 13.1 µM (inactive) with NCI-H226; 10.2 µM (inactive) in the assay on NCI-H23. Besides, the GI50 was 5.96 µM (inactive) in the assay on NCI-H460; 7.35 µM (inactive) in the assay on OVCAR-8; 4.58 µM (inactive) in the assay on PC-3; 14.5 µM (inactive) in the assay on TK-10; 3.66 µM (inactive) in the assay on UACC-62; 11.8 µM (inactive) in the assay on UO-31.

As to `CC(C)(C)OC(=O)N(O)CCCn1cnc2c(NC3CC3)ncnc21`, the GI50 in the assay with 786-0, with BT-549, in the assay on CAKI-1, in the assay on DU-145, in the assay on K562 and in the assay on MDA-MB-231 was > 100 µM (inactive) throughout. Moreover, the GI50 with MDA-MB-435, in the assay with MOLT-4, in the assay on Malme-3M, with NCI-H226, with NCI-H23 and in the assay with NCI-H460 was > 100 µM (inactive) in each case. In addition, the GI50 in the assay on OVCAR-4, in the assay with OVCAR-8, in the assay with PC-3, in the assay with SK-MEL-28, with TK-10 and with UACC-62 was > 100 µM (inactive) in each case. For the same compound, the GI50 with UO-31 was > 100 µM (inactive).

With `Cc1c(C(=O)N2CCN(c3ccc([N+](=O)[O-])cc3)CC2)[n+]([O-])c2cc(Cl)c(Cl)cc2[n+]1[O-]`, the GI50 in the assay on 786-0 was 16.5 µM (inactive); with BT-549, 16.9 µM (inactive); in the assay on CAKI-1, 25.1 µM (inactive); in the assay on DU-145, 19.8 µM (inactive); in the assay on HL-60, 28.4 µM (inactive); in the assay on K562, 26.5 µM (inactive). For the same compound, the GI50 with MDA-MB-231 was 21.2 µM (inactive); in the assay with MDA-MB-435 it was 35.7 µM (inactive); in the assay with MOLT-4, 72.8 µM (inactive); in the assay with Malme-3M, 21.8 µM (inactive); with NCI-H23 it was 14.8 µM (inactive); with NCI-H460, 19.5 µM (inactive). Moreover, the GI50 with OVCAR-4 is 10.8 µM (inactive); in the assay on OVCAR-8 it was 16.9 µM (inactive); with PC-3, 19.1 µM (inactive); in the assay with SK-MEL-28 it was 26.4 µM (inactive); in the assay with TK-10 it was 21.6 µM (inactive); with UACC-62, 15.8 µM (inactive).

On to `Cc1nc2ccccc2c(=O)n1NC(=O)c1ccc(N)cc1`, for which the GI50 in the assay on 786-0, with BT-549, in the assay on DU-145, with HL-60, in the assay with K562 and with MDA-MB-231 was > 100 µM (inactive) each time. Moreover, the GI50 in the assay with MDA-MB-435, with MOLT-4, with Malme-3M, in the assay on NCI-H226, in the assay with NCI-H23 and with NCI-H460 was > 100 µM (inactive) throughout. Also, the GI50 with OVCAR-4, in the assay on OVCAR-8, in the assay with PC-3, in the assay on SK-MEL-28, in the assay with TK-10 and with UACC-62 was > 100 µM (inactive) each time. Further, in the assay on UO-31, the GI50 was > 100 µM (inactive).

For the compound `COC(=O)[C@H](C)[C@@H]1CC[C@](C)(CCC2=C(C)CCCC2(C)C)OO1`, the GI50 in the assay on 786-0 is > 25 µM (inactive); in the assay on BT-549, > 25 µM (inactive); in the assay on CAKI-1 it was > 25 µM (inactive); in the assay with DU-145 it was > 25 µM (inactive); in the assay with HL-60, 12 µM (inactive); in the assay on K562 it was 14.3 µM (inactive). Moreover, the GI50 with MDA-MB-231, in the assay on MDA-MB-435, in the assay with MOLT-4, in the assay on Malme-3M, in the assay on NCI-H23 and with NCI-H460 was > 25 µM (inactive) throughout. In addition, the GI50 in the assay on OVCAR-4, in the assay on OVCAR-8, with PC-3, in the assay with SK-MEL-28, in the assay on TK-10 and with UACC-62 was > 25 µM (inactive) each time. Besides, the GI50 in the assay on UO-31 is 23.7 µM (inactive).

Take `C[C@H]1S[C@H](c2c(Cl)cccc2Cl)N2Cc3ccccc3N=C12`: the GI50 was 8.49 µM (inactive) in the assay with 786-0; 28.2 µM (inactive) in the assay on BT-549; 40.6 µM (inactive) with CAKI-1; 13.1 µM (inactive) in the assay on DU-145; 5.9 µM (inactive) with HL-60; 25.7 µM (inactive) in the assay with K562. The GI50 in the assay with MDA-MB-231 was 23.9 µM (inactive); with MDA-MB-435, 14.3 µM (inactive); in the assay with MOLT-4 it was 8.83 µM (inactive); with NCI-H23, 11 µM (inactive); in the assay on NCI-H460 it was 11.3 µM (inactive); with OVCAR-4, 29.8 µM (inactive). Besides, the GI50 in the assay with PC-3 was 14.5 µM (inactive); with TK-10 it was 17 µM (inactive); with UACC-62 it was 9.82 µM (inactive); in the assay with UO-31, 12.4 µM (inactive).

With `N#Cc1ccc(N2CCOCC2)cc1`, the GI50 in the assay on 786-0 was > 100 µM (inactive); in the assay on BT-549, 24.9 µM (inactive); with CAKI-1 it was > 100 µM (inactive); with DU-145, > 100 µM (inactive); in the assay on HL-60 it was > 100 µM (inactive); with MDA-MB-231, > 100 µM (inactive). For the same compound, the GI50 was > 100 µM (inactive) in the assay with MDA-MB-435; > 100 µM (inactive) in the assay on MOLT-4; 80.5 µM (inactive) in the assay with NCI-H23; > 100 µM (inactive) in the assay on NCI-H460; > 100 µM (inactive) in the assay on OVCAR-4; > 100 µM (inactive) in the assay on OVCAR-8. Also, the GI50 with PC-3, in the assay on SK-MEL-28, with TK-10, in the assay with UACC-62 and with UO-31 was > 100 µM (inactive) in each case.

As to `CCCCCCCC1(N=[N+]=[N-])C(=O)Nc2ccccc2C1=O` (centres undefined), the GI50 in the assay with 786-0 is 16.6 µM (inactive); with BT-549 it was 16.7 µM (inactive); in the assay on CAKI-1, 14.7 µM (inactive); with DU-145 it was 14.9 µM (inactive); with HL-60, > 10 µM (inactive); with K562, 16.4 µM (inactive). The GI50 in the assay with MDA-MB-231 is 21.7 µM (inactive); with MDA-MB-435, 18.2 µM (inactive); with MOLT-4, 10.4 µM (inactive); in the assay on Malme-3M it was 17.7 µM (inactive); with NCI-H23 it was 18.2 µM (inactive); in the assay on NCI-H460, 21.4 µM (inactive). Besides, the GI50 with OVCAR-4 was 16.2 µM (inactive); in the assay on PC-3 it was 11.5 µM (inactive); in the assay with SK-MEL-28, 16.1 µM (inactive); with TK-10, 17.2 µM (inactive); in the assay on UACC-62, 11.3 µM (inactive); in the assay on UO-31, 12.7 µM (inactive).

In the case of `CNC(=O)C1OC(n2cnc3c(NCc4cccc(I)c4)nc(Cl)nc32)C(O)C1O` (centres undefined), the GI50 in the assay with 786-0 was 18.6 µM (inactive); with BT-549 it was 14.1 µM (inactive); in the assay with CAKI-1, 19.3 µM (inactive); in the assay with DU-145 it was 19.7 µM (inactive); with HL-60, 15.3 µM (inactive); in the assay on K562, 12.9 µM (inactive). In addition, the GI50 in the assay with MDA-MB-231 was 22.8 µM (inactive); in the assay with MDA-MB-435, 11.3 µM (inactive); in the assay with MOLT-4, 14.2 µM (inactive); in the assay on Malme-3M it was 3.64 µM (inactive); in the assay on NCI-H226, 7.69 µM (inactive); in the assay with NCI-H23 it was 12.7 µM (inactive). The GI50 in the assay with OVCAR-8 was 13.8 µM (inactive); in the assay on PC-3 it was 11.9 µM (inactive); in the assay on TK-10, 16.3 µM (inactive); in the assay with UACC-62, 10.1 µM (inactive); in the assay on UO-31, 11.9 µM (inactive).

The values are drawn from ChEMBL document CHEMBL1201862, “PubChem BioAssay data set” (2004).
